Columns and labels:
PP2A = PP2A activity in immortal podocytes (PP2A activity kit); assay type: cell-based; settings: 1 hour
Description: Immortal podocytes were stimulated with ATG at concentrations of 0, 1.0 μm, 3.3 μm, and 10 μm, and the stimulation time was 1 hour. The activity of PP2A was detected by PP2A activity kit (R & D systems, DYC3309-2).

[1] = test system: diabetic kidney disease mice; test: Proteinuria in STZ-induced diabetic nephropathy mice; assay type: in vivo; settings: 40 mg/kg oral once daily
Description: When the mice were 6 weeks of age, streptozotocin (STZ)-induced diabetic nephropathy models were started by tail vein injection. The specific method is: STZ in accordance with the amount of 50 mg/kg is injected in tail vein. 72 hours after the injection, determine whether the modeling is successful by determining the level of blood glucose and urine. When the blood glucose level is more than 16 mmol/L and urine glucose level is between +++ and ++++, the model was considered successful. After 10 weeks of STZ injection, ATG was orally administered at a dose of 40 mg/kg once daily. The control group was given the same volume of DMSO (dimethyl sulfoxide) orally. Treatment was for 8 weeks. Urine protein levels were measured in each group. The number of the mice in each group is 10 in Table 3. […] ACEI: angiotensin converting enzyme inhibitors; ARBs: angiotensin receptor blockers.

NOX4 mRNA = NOX4 mRNA expression in human immortal podocytes under high glucose (Realtime PCR); assay type: cell-based; settings: FIG. 7
Text: The detection method of Western Blot and mRNA used in the present embodiment is a detection method commonly used by person skilled in the art, and the specific detection method is described in “Molecular Biology Laboratory Manual” (People's Military Medical Press, published in 2011 Jun. 1). 3.1 Western blot and Realtime PCR confirmed that ATG in human immortal podocytes can inhibit the overexpression of NOX4 caused by high glucose stimuli, see table 5 and FIG. 6. The expression of NOX4 in the total protein, membrane protein and mitochondrial protein of human immortal podocytes was detected in the experiment.

NOX4 = NOX4 protein expression in mouse primary endothelial cells under high glucose (Western blot); assay type: cell-based
Text: The detection method of Western Blot and mRNA used in the present embodiment is a detection method commonly used by person skilled in the art, and the specific detection method is described in “Molecular Biology Laboratory Manual” (People's Military Medical Press, published in 2011 Jun. 1). 3.2 Western blot and Realtime PCR confirmed that ATG could inhibit the overexpression of NOX4 in mouse's primary endothelial cells. The dose of 1 and 10 μmol/L corresponds to the last two bands.

## COc1cc(C[C@H]2C(=O)OC[C@@H]2Cc2ccc(OC)c(OC)c2)ccc1O [ATG, Arctigenin]
PP2A; ATG 0 to 10 μm
  activity of PP2A, dependence on concentration: increased with the increase of ATG concentration
PP2A; ATG 1.0 μm
  PP2A activity values, mean: 0.0268
PP2A; ATG 3.3 μm
  PP2A activity values, mean: 0.0279
PP2A; ATG 10 μm
  PP2A activity values, mean: 0.0484
[1]; Model group - ATG (STZ mice), 0 week
  proteinuria (urine protein level): 0.98
[1]; Model group - ATG (STZ mice), 1 week
  proteinuria (urine protein level): 0.95
[1]; Model group - ATG (STZ mice), 2 week
  proteinuria (urine protein level): 1.10
[1]; Model group - ATG (STZ mice), 3 week
  proteinuria (urine protein level): 0.66
[1]; Model group - ATG (STZ mice), 4 week
  proteinuria (urine protein level): 0.66
[1]; Model group - ATG (STZ mice), 5 week
  proteinuria (urine protein level): 0.37
[1]; Model group - ATG (STZ mice), 6 week
  proteinuria (urine protein level): 0.22
[1]; Model group - ATG (STZ mice), 7 week
  proteinuria (urine protein level): 0.18
[1]; Model group - ATG (STZ mice), 8 week
  proteinuria (urine protein level): 0.18
[1]; Normal group - ATG, 0 week
  proteinuria (urine protein level): 0.12
[1]; Normal group - ATG, 1 week
  proteinuria (urine protein level): 0.11
[1]; Normal group - ATG, 2 week
  proteinuria (urine protein level): 0.18
[1]; Normal group - ATG, 3 week
  proteinuria (urine protein level): 0.12
[1]; Normal group - ATG, 4 week
  proteinuria (urine protein level): 0.16
[1]; Normal group - ATG, 5 week
  proteinuria (urine protein level): 0.18
[1]; Normal group - ATG, 6 week
  proteinuria (urine protein level): 0.12
[1]; Normal group - ATG, 7 week
  proteinuria (urine protein level): 0.14
[1]; Normal group - ATG, 8 week
  proteinuria (urine protein level): 0.13
[1]; STZ mice, 8 weeks
  effect on proteinuria: significantly reduces proteinuria
  effect on proteinuria compared with ACEI/ARBs: superior to the ACEI/ARBs
NOX4 mRNA
  overexpression of NOX4 mRNA induced by high glucose: able to inhibit the overexpression of NOX4 mRNA
NOX4; ATG 1 uM
  NOX4/B-Tubulin Mean: 0.18
NOX4; ATG 10 uM
  NOX4/B-Tubulin Mean: 0.12
